We go through one molecule from patent US20190351019A1, “STEROID ADMINISTRATION AND IMMUNOTHERAPY” (Intrexon Corporation, priority 2016, published 2019).

This experiment is described as follows: Infusion of CAR-T cells followed by prednisone in a B-ALL patient: GVHD course and blood counts (case report). It is filed as in vivo, human. The note with it: about 1 mg/kg starting day 14; on day 18 (or Day 48 since administration of CAR-T cells); dose then reduced to about 0.5 mg/kg. How it is done: A person was diagnosed with B-cell acute lymphoblastic leukemia (B-ALL). […] Multiple salvage therapies were given. POMP maintenance therapy was subsequently started. The patient further developed graft-versus-host disease GVHD and was treated with prednisone and tacrolimus. Additional radiation therapy (XRT), immunotherapy, hyperCAVD and O-EPOCH were further administered to the patient. Further, lymphodepletion was induced in the patient with cyclophosphamide at 500 mg/m^2 and fludarabine at 30 mg/m^2 for 3 days. Following lymphodepletion, 10^6 CAR-T cells/kg were infused into the patient on day 0. […] About 1 mg/kg of prednisone was administered starting day 14. […] White blood cell count (WBC) was 2.7 and absolute lymphocyte count (ALC) was 200.

As for `C[C@]12C=CC(=O)C=C1CC[C@@H]1[C@@H]2C(=O)C[C@@]2(C)[C@H]1CC[C@]2(O)C(=O)CO` [prednisone], the “outcome of GVHD under prednisone” value is “GVHD was resolved”.
